Where two headings read alike, the source gives them in different places.
What was measured:
CDK2/cyclin E = CDK2/cyclin E (Homo sapiens (Human), UniProt P24941); assay: In-vitro recombinant kinase assay CDK2/cyclin E; assay type: biochemical
Experimental: (§1) To evaluate the in-vitro kinase potency of the compounds, they were screened against CDK 2 and CDK9. Kinase assays were performed in 96-well plates using recombinant CDK/cyclins generated at Cyclacel. Ltd Dundee, UK. CDK2 and CDK9 assays were performed in a total volume of 25 μl in assay buffer (25 mM b-glycerophosphate, 20 mM MOPS, 5 mM EGTA, 1 mM DTT and 1 mM NaVO3, pH 7.4), into which were added 2-4 μg of active enzyme with appropriate substrates (purified histone H1 for CDK2/cyclin E, and CDK2/cyclin A, biotinyl-Ahx-(YSPTSPS)4 for CDK9/cyclin T1). […] CDK2 reactions were stopped by addition of 25 μl of 75 mM phosphoric acid, followed by filtration through P81 filterplates (Whatman Polyfiltronics, Kent, UK). For CDK9, the reaction was stopped by addition of 25 μl of 75 mM phosphoric acid, then 5 μl of 10 mg/ml avidin was added to each well and further incubated for 2 min followed by filtration as per CDK2 assay. After washing 3 times with 75 mM orthophosphoric acid, plates were dried, scintillant added and incorporated radioactivity measured in a scintillation counter (TopCount, Packard Instruments, Pangbourne, Berks, UK). Compounds for kinase assay were made up as 10 mM stocks in DMSO and diluted into 10% DMSO in assay buffer.
as §1

[1] = system: H460 non-small cell lung cancer (NSCLC) cell line; assay: Alamar blue cytotoxicity assay in H460 NSCLC tumour cell line; assay type: cell-based; details: for Fold increase in potency: H460 cellular IC50 compared with seliciclib; for IC50: H460 cells, 72 hours, average of three independent experiments
Experimental: In order to determine the cellular potency of the compounds, the cytotoxicity of each compound was determined against the H460 non-small cell lung cancer (NSCLC) cell line. Standard cytotoxicity methods were performed as follows: H460 cells were seeded in 96-well plates appropriately for their doubling time (3000 cells per well) in RPMI media containing 10% FCS and incubated overnight at 37° C., 5% CO2. The media was removed and 100 μl fresh media containing increasing concentrations of appropriate compound was added and the cells incubated for 72 hours at 37° C., 5% CO2. A 10% stock of alamar blue (Roche, Lewes, United Kingdom) was prepared in medium and 100 μl added to the cells which were incubated for 2 hours.

CDK9/cyclin T1 = CDK9/cyclin T1 (Homo sapiens (Human), UniProt P50750); assay: In-vitro recombinant kinase assay CDK9/cyclin T1; assay type: biochemical; details: Table 2; average of duplicate points
Experimental: as §1, §1

CDK2/cyclin A = CDK2/cyclin A (Homo sapiens (Human), UniProt P24941); assay: In-vitro recombinant kinase assay CDK2/cyclin A; assay type: biochemical
Experimental: as §1, §1

CDK1B = CDK1B (Homo sapiens (Human), UniProt P06493); assay: In-vitro kinase assay screen CDK1B (Table 4); assay type: biochemical
[2] = Table 2, average of duplicate points, read-out: CDK2/Cyclin E Average IC50
[3] = Table 2, average of duplicate points, read-out: CDK2/Cyclin A Average IC50
[4] = Table 4, Run 1, read-out: CDK2A Run 1
[5] = Table 4, Run 2, read-out: CDK2A Run 2
[6] = Table 4, Run 1, read-out: CDK2E Run 1
[7] = Table 4, Run 2, read-out: CDK2E Run 2
[8] = Table 4, mean of two runs, read-out: CDK2E Mean
[9] = Table 4, Run 1, read-out: CDK1B Run 1
[10] = Table 4, Run 2, read-out: CDK1B Run 2
[11] = Table 4, mean of two runs, read-out: CDK1B Mean

Chain of CDK9/cyclin T1 (P50750 whole entry, species assumed): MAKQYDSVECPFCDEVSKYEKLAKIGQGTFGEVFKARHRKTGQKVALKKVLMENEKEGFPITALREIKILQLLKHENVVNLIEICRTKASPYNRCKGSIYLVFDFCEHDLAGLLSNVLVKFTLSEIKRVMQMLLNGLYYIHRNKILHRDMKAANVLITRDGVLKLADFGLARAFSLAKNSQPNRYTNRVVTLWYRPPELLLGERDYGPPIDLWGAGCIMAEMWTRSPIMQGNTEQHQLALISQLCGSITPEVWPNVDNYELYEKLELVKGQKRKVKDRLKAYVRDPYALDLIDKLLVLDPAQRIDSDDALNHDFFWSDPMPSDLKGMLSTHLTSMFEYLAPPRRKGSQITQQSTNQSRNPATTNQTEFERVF
Chain of CDK9/cyclin T1 (O60563 whole entry partner, species assumed): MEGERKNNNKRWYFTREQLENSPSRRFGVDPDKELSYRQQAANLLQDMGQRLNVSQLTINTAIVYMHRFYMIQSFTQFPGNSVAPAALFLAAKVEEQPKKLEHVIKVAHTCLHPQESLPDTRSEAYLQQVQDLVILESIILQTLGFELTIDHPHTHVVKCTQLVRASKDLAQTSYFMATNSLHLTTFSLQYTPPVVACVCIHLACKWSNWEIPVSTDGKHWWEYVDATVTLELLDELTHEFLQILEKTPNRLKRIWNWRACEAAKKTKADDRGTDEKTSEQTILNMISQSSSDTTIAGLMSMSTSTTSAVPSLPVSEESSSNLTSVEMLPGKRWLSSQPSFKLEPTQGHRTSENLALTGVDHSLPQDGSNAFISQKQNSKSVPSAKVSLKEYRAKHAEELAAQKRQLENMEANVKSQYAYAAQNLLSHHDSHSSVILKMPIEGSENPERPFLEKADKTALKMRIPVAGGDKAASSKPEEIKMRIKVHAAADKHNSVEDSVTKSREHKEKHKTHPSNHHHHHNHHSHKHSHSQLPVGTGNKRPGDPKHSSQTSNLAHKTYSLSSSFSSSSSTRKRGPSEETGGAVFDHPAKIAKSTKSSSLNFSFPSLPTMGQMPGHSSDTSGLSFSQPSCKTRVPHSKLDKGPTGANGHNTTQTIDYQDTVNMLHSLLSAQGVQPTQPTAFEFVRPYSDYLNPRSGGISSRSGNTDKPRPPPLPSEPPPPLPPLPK
Chain of CDK1B (P06493 whole entry): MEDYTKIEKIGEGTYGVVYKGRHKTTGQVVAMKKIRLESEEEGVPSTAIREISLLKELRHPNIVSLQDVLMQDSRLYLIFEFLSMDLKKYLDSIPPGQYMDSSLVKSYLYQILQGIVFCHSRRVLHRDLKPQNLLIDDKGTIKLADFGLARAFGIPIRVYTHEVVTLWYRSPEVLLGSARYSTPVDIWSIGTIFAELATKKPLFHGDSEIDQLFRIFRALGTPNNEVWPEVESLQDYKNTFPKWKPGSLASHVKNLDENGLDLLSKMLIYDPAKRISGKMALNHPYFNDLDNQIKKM
Chain of CDK1B (P14635 whole entry partner): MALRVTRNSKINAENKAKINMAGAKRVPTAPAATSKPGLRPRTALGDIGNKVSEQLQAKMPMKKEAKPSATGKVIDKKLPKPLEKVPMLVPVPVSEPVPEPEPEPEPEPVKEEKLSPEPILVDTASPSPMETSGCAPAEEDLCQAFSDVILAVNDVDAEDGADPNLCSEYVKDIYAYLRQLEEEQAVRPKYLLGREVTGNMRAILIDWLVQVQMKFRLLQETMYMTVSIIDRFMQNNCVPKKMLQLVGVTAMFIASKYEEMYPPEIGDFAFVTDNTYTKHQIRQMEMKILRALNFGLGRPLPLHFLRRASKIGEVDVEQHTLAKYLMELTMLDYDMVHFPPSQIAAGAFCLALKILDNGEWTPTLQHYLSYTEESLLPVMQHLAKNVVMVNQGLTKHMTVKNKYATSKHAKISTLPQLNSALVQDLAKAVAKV

IC50 (CDK2/cyclin E; [2])	IC50 (CDK9/cyclin T1)	Compound	Fold increase in potency [1]	IC50 ([1]; Homo sapiens, NCI-H460, 72 h)	other results
830 nM	7890 nM	CC[C@H](Nc1nc(NCc2cccnc2)c2ncn(CC3CC3)c2n1)[C@@H](C)O [[5], 2R,3S-3-(9-(Cyclopropylmethyl)-6-(pyridin-3-ylmethylamino)-9H-purin-2-ylamino)pentan-2-ol]	0.3	34400 nM	–
570 nM	7400 nM	CC(C)n1cnc2c(NCc3cccnc3)nc(NCC(O)C(F)(F)F)nc21 (stereo not drawn) [[15], 1,1,1-Trifluoro-3-(9-isopropyl-6-(pyridin-3-ylmethylamino)-9H-purin-2-ylamino)propan-2-ol]	0.6	20300 nM	–
50 nM	1040 nM	CC[C@H](Nc1nc(NCc2cc(C)nc(C)c2)c2ncn(C(C)C)c2n1)[C@@H](C)O [[10], 2R,3S-3-(9-Isopropyl-6-(2,6-dimethylpyridine-4-ylmethylamino)-9H-purin-2-ylamino)pentan-2-ol]	5.0	2400 nM	–
290 nM	6530 nM	CC(C)n1cnc2c(NCc3cccnc3)nc(NC[C@@H](C)O)nc21 [[14], (R)-1-(9-Isopropyl-6-(pyridin-3-ylmethylamino)-9H-purin-2-ylamino)propan-2-ol]	0.7	16700 nM	–
20 nM	80 nM	CC[C@H](Nc1nc(NCc2cccc(F)c2)c2ncn(C(C)C)c2n1)[C@@H](C)O [[4], 2R,3S-3-[6-(3-Fluorobenzylamino)-9-isopropyl-9H-purin-2-ylamino]-pentan-2-ol]	8.0	1500 nM	IC50 (CDK2/cyclin A; [3]): 120 nM
40 nM	610 nM	CC[C@H](Nc1nc(NCc2ccncc2)c2ncn(C(C)C)c2n1)[C@@H](C)O [[9], 2R,3S-3-(9-Isopropyl-6-(pyridine-4-ylmethylamino)-9H-purin-2-ylamino)pentan-2-ol]	5.2	2300 nM	–
160 nM	500 nM	CC[C@H](Nc1nc(NC2CCC2)c2ncn(C(C)C)c2n1)[C@@H](C)O [[8], 2R,3S-3-(6-(Cyclobutylamino)-9-isopropyl-9H-purin-2-ylamino)pentan-2-ol]	4.1	2900 nM	–
40 nM	250 nM	CC[C@H](Nc1nc(NCc2ccc(C(F)(F)F)nc2)c2ncn(C(C)C)c2n1)[C@@H](C)O [[11], 2R,3S-3-(9-Isopropyl-6-((6-(trifluoromethyl)pyridine-3-yl)methylamino)-9H-purin-2-ylamino)pentan-2-ol]	13.3	< 1000 nM	IC50 [1]: 900 nM
50 nM	2040 nM	CC[C@H](Nc1nc(NCc2cccc(C)n2)c2ncn(C(C)C)c2n1)[C@@H](C)O [[12], 2R,3S-3-(9-Isopropyl-6-((6-methylpyridin-2-yl)methylamino)-9H-purin-2-ylamino)pentan-2-ol]	1.7	7200 nM	–
–	–	CCC(Nc1nc(NCc2ccc(C(F)(F)F)nc2)c2ncn(C(C)C)c2n1)C(O)C(F)(F)F (stereo not drawn) [[17], 1,1,1-Trifluoro-3-(9-isopropyl-6-((6-(trifluoromethyl)pyridin-3-yl)methylamino)-9H-2-ylamino)pentan-2-ol]	–	–	IC50 (CDK2/cyclin A; [4]): 305 nM; IC50 (CDK2/cyclin A; [5]): 431 nM; IC50 (CDK2/cyclin A; Table 4, mean of two runs, read-out: CDK2A Mean): 368 nM; IC50 (CDK2/cyclin E; [6]): 318 nM; IC50 (CDK2/cyclin E; [7]): 307 nM; IC50 (CDK2/cyclin E; [8]): 313 nM; IC50 (CDK1B; [9]): 6.12 µM; IC50 (CDK1B; [10]): 11.2 µM; IC50 (CDK1B; [11]): 8.68 µM
50 nM	270 nM	CC[C@H](Nc1nc(NC2CC2)c2ncn(C(C)C)c2n1)[C@@H](C)O [[6]]	7.1	1700 nM	–
770 nM	5840 nM	CC[C@H](Nc1nc(NCc2ncccc2C)c2ncn(C(C)C)c2n1)[C@@H](C)O [[13], 2R,3S-3-(9-Isopropyl-6-((3-methylpyridin-2-yl)methylamino)-9H-purin-2-ylamino)pentan-2-ol]	0.6	19400 nM	–
10 nM	60 nM	CC[C@H](Nc1nc(NCc2cccc(Cl)c2)c2ncn(C(C)C)c2n1)[C@@H](C)O [[3], 2R,3S-3-(6-(3-Chlorobenzylamino)-9-isopropyl-9H-purin-2-ylamino)pentan-2-ol]	8.0	1500 nM	IC50 (CDK2/cyclin A; [3]): 100 nM
40 nM	380 nM	CC[C@H](Nc1nc(NCC2CC2)c2ncn(C(C)C)c2n1)[C@@H](C)O [[7], 2R,3S-3-(6-(Cyclopropylmethylamino)-9-isopropyl-9H-purine-2-ylamino)pentan-2-ol]	5.0	2400 nM	–
–	–	CC(C)n1cnc2c(NCc3cccnc3)nc(NCC(O)(C(F)(F)F)C(F)(F)F)nc21 [[18], 1,1,1,3,3,3-Hexafluoro-2-((9-isopropyl-6-(pyridine-3-ylmethylamino)-9H-purin-2-ylamino)methyl)propan-2-ol]	–	–	IC50 (CDK2/cyclin A; [4]): 704 nM; IC50 (CDK2/cyclin A; [5]): 1190 nM; IC50 (CDK2/cyclin E; [6]): 336 nM; IC50 (CDK2/cyclin E; [7]): 279 nM; IC50 (CDK2/cyclin E; [8]): 308 nM; IC50 (CDK1B; [9]): 5.88 µM; IC50 (CDK1B; [10]): 6.72 µM; IC50 (CDK1B; [11]): 6.3 µM
90 nM	2140 nM	CCC(Nc1nc(NCc2cccnc2)c2ncn(C(C)C)c2n1)C(O)C(F)(F)F (stereo not drawn) [[16], 1,1,1-Trifluoro-3-(9-isopropyl-6-(pyridin-3-ylmethylamino)-9H-purin-2-ylamino)pentan-2-ol]	2.9	4100 nM	–

Compound	IC50 (CDK2/cyclin E; [2])	IC50 (CDK9/cyclin T1)	Fold increase in potency [1]	IC50 ([1]; Homo sapiens, NCI-H460, 72 h)	other results
CC[C@H](Nc1nc(NCc2ccc(C)nc2)c2ncn(C(C)C)c2n1)[C@@H](C)O [[2], 2R,3S-3-(9-isopropyl-6-((6-methylpyridin-3-yl)methylamino)-9H-purin-2-ylamino)pentan-2-ol]	520 nM	3630 nM	0.3	35000 nM	IC50 (CDK2/cyclin A): 3250 nM
